Source: publication PMC10388354, “Ir(III) Compounds Containing a Terdentate Ligand Are Potent Inhibitors of Proliferation and Effective Antimetastatic Agents in Aggressive Triple-Negative Breast Cancer Cells” (Journal of Medicinal Chemistry, 2023)

How the values were obtained:
Assay type in all cases: cell-based, human
MDA-MB-231 cells = experiment: Anti-invasion activity, real-time monitoring (xCELLigence RTCA CIM plate); details: cells treated with IC50,72h for 24 h before seeding; monitored 7 days; untreated control 21 h
Procedure: The anti-invasive effects of the investigated Ir complexes in real time were assessed by the xCELLigence DP instrument with the migration RTCA CIM plate 16.[48] This system is based on the principle of the Boyden chamber that allows real-time monitoring of the number of invading cells. When cells migrate from the upper to lower wells through the microporous membrane with integrated microelectrodes, they contact and adhere to the microelectrodes affecting the impedance. The output of the experiment performed with this system is the dimensionless cell index (CI); when the cells invade, the CI increases. Moreover, it is possible to analyze the time from cell seeding to the time when invasion through the membrane matrix for each sample treated with tested compounds started (tinv). This period is determined by the intersection of the curve corresponding to the particular time-dependent cell response profile (TCRP) with the straight line corresponding to the threshold value (CI = 0). […] The invasion process was monitored for 7 days to determine whether cell death occurred during the subsequent time after the invasion was observed.
Anti-invasion activity was monitored by the xCELLigence system (Roche). […] Samples were continuously monitored every 5 min for an additional 7 days. […]

[1] = tested on: spheroids generated from MDA-MB-231 cells; experiment: Morphological quantification of 3D tumor spheroids and cell-invasive potential; details: for protrusion occurrence (length): control 32 μm
From the text: The cancer cell transition from proliferation to invasion is usually initiated by nutrient stress and unfavorable conditions caused by the progressive growth of the primary tumor.[63] To study the dynamics of cells to evade the primary tumor, we monitored the morphology of spheroids generated from MDA-MB-231 cells embedded in an agar matrix.[64] Multicellular tumor spheroids represent the most used 3D in vitro model[65] and offer the opportunity to study the invasive potential of cancer cells under conditions much closer to the in vivo situation than when the traditional Transwell assay is used.[64] Morphological parameters were utilized to evaluate the invasive potential of spheroids generated from MDA-MB-231 cells.[66] Spheroid perimeter is the most useful morphological parameter for quantifying overall proliferation, whereas roundness, shape integrity, and quantification of protrusion occurrence are the morphological parameters related to the invasion potential.[64],[66] At the most compact stage, cells on the surface follow the contour of the spheroid. This morphology resembles the proliferating but not invading character of the spheroid, whereas diffuse and rough borders are the signs of the invasive character of peripheral cells. Assessment of the spheroid circularity (roundness) was analyzed by the automated edge detection and measurement of the enclosed area. A circularity equal to one indicates a perfectly circular spheroid, whereas lower values indicate a loss of circularity. The solidity is an indicator of the regularity of the spheroids’ surface or its roughness and thus can be considered the indicator of the primary protrusions and the overall regularity of the spheroid.[66]
MDA-MB-231 cells were seeded in a sandwich agar matrix (0.5% bottom gel and 0.35% upper cell-containing gel). First, wells of 24-well plates were covered with 0.5% agar gel, and then MDA-MB-231 cells were resuspended in 0.35% agar matrix. The detailed protocol was as follows: Stock solution of agar gel was prepared by autoclaving 1 g of agar in 100 mL of PBS for at least a 20 min liquid cycle. Twenty-four-well plates were covered with 1 mL of 0.5% agar created by mixing 1% agar solution with cultivation media in 1:1 ratio. The dish was then layered with 1 mL of 0.35% agar composed of 0.35 mL of 1% agar and 0.65 mL of cultivation media containing 10^5 MDA-MB-231 cells. After gel solidification, the dish was covered with 2 mL of cultivation media. Mixing of agar solution and media was carried out after the agar solution cooled to approximately 40 °C to prevent damage by high temperature. Cells were cultured for an additional 7 days to establish spheroid structures, then treated with tested compounds at the equitoxic concentration corresponding to IC50,72h, and cultured for an additional 72 h. Samples were photographed on a phase contrast microscope (Olympus CKX41), and images were processed and analyzed for morphology parameters in ImageJ software.

[2] = tested on: vimentin in MDA-MB-231 VIM RFP cells; experiment: Flow cytometric quantification of vimentin (VIM RFP reporter); details: 72 h
Procedure: Quantification of vimentin expression after the treatment of MDA-MB-231 VIM RFP cells with tested compounds was determined with flow cytometry. MDA-MB-231 VIM RFP cells were seeded at the density of 1 × 10^4 cells/well and incubated overnight. […] After 72 h of incubation, cells were trypsinized and analyzed on a flow cytometer Cell Stream (Luminex, USA). The data were processed using Cell Stream analysis software or FCS Express 7 (DeNovo Software, CA). The fluorescence coming from the VIM RFP tag is proportional to the expression of vimentin in treated cells. Each sample analyzed by flow cytometry consisted of at least 30,000 events.

MDA-MB-231 VIM RFP cells [3] = experiment: Morphology of the vimentin intermediate filament network by confocal microscopy; details: 24 h, IC50,72h
Procedure: MDA-MB-231 VIM RFP cells were seeded on 35 mm confocal Petri dishes (Mattek) at the density of 2.5 × 10^5 cells per dish and incubated overnight. […] Then, samples were washed with PBS, fixed with 3.7% formaldehyde (10 min, RT), and mounted with ProLong Diamond Antifade Mountant with DAPI. Samples were visualized with a confocal microscope Leica SP8 SMD operated under the deconvolution lightning mode.

MCF-10A cells = experiment: Antiproliferative activity, sulforhodamine B (SRB) assay, non-malignant cells
Procedure: The antiproliferative activity of the investigated compounds was evaluated using the SRB assay. The cells were seeded in 96-well tissue culture plates at a density of 3 × 10^3 cells/well in 100 μL of the medium. After overnight incubation in a humidified CO2 incubator, the cells were treated with the tested compounds in a final volume of 200 μL/well. After an additional 72 h, cells were washed with PBS and fixed for 1 h at 4 °C with trichloroacetic acid. Then, the cells were stained with 0.4% SRB dye for 30 min. Stained cells were dissolved with Tris (10 mM). The cell viability was evaluated by measurement of the absorbance at 570 nm using an absorbance reader (SPARK TECAN, SCHOELLER). The reading values were converted to the percentage of control (% cell survival). Antiproliferative effects were expressed as IC50 values calculated from curves constructed by plotting cell survival (%) versus drug concentration (μM) (IC50 = concentration of the agent inhibiting cell growth by 50%). Concentrations of compounds present in the medium during the treatment were verified by FAAS or ICP-MS.

MDA-MB-231 VIM RFP cells [4] = experiment: Wound healing assay
Procedure: MDA-MB-231 VIM RFP cells were seeded on 35 mm confocal Petri dishes (Mattek) at the density of 3 × 10^5 cells/dish and incubated overnight or for a further 24–48 h to reach approximately 70% confluency. Defined scratch (220 μm width) was done under continuous suction with the pipette tip. Cells were washed, and the medium was replaced with the culture medium supplemented with tested compounds, applied at the equitoxic concentration (IC50,72h). Samples were incubated for an additional 24 h before fixation with 3.7% formaldehyde (10 min, RT) and mounted with ProLong Diamond Antifade Mountant (LifeSciences, Thermo Fisher Scientific). Samples were visualized with a confocal microscope Leica SP8 SMD operated under the deconvolution lightning mode. Images were analyzed by using ImageJ software. The scratch boundaries were identified with the MRI wound healing tool ImageJ plugin or identified manually.

B-catenin = experiment: RT-qPCR of EMT-related gene transcripts; details: MDA-MB-231, 24 h, IC50,72h
Procedure: (§1) MDA-MB-231 cells were seeded on a six-well plate at the density of 0.5 × 10^6 cells per well and incubated overnight. […] Cells were harvested, and total RNA was isolated using NucleoSpin RNA columns (Machery Nagel, GE). One-step qPCR combining reverse transcription followed by amplification thermal cycling was applied using a Luna Universal One-Step RT-qPCR (New England BioLabs, MA, USA). Experiments were performed on an Illumina Eco Real-Time PCR (Illumina, CA, USA). The thermal profile was as follows: reverse transcription for 10 min at 55 °C and initial denaturation for 1 min at 95 °C, followed by 43 thermal cycles of denaturation for 10 s at 95 °C and extension for 30 s at 60 °C. Primer sequences were as follows: Β-actin-F: […]; Β-actin-R: […]; Vim-F: […]; Vim-R: […]; E-Cadherin-F: […]; E-Cadherin-R: […]; N-Cadherin-F: […]; N-Cadherin-R: […]; B-Catenin-F: […]; B-Catenin-R: […]; SNAI1-F: […]; SNAI1-R: […]. Purified primers were from Generi Biotech (Czech Republic). All runs included melting curve analysis and template-free negative technical controls to confirm specific single-product amplification. Β-actin was used as an internal control. The relative expression of mRNA is represented as a fold increase (2^–ΔΔCt).[69]

SNAI1 = experiment: RT-qPCR of EMT-related gene transcripts; details: MDA-MB-231, 24 h, IC50,72h
Procedure: as §1

Vimentin = experiment: RT-qPCR of EMT-related gene transcripts; details: MDA-MB-231, 24 h, IC50,72h
Procedure: as §1

N-Cadherin = experiment: RT-qPCR of EMT-related gene transcripts; details: MDA-MB-231, 24 h, IC50,72h
Procedure: as §1

E-Cadherin = experiment: RT-qPCR of EMT-related gene transcripts; details: MDA-MB-231, 24 h, IC50,72h
Procedure: as §1

[5] = one week-old spheroids, 72 h treatment at IC50,72h
[6] = β-actin reference, untreated control as calibrator

COc1cccc2c1C(=O)c1c(O)c3c(c(O)c1C2=O)C[C@@](O)(C(=O)CO)C[C@@H]3O[C@H]1C[C@H](N)[C@H](O)[C@H](C)O1 [Dox, doxorubicin]
tinv, period needed to invade through the matrix membrane (MDA-MB-231 cells): approximately 35 h | mean perimeter of spheroids ([1]; 72 h treatment at IC50,72h, control 2.1 mm): about 2.8 mm | solidity ([1]; one week-old spheroids, 72 h at IC50,72h, control 3.0, Ir1 value affected by collapse of the spheroid structure): 6.3 | secondary protrusions (SP) [1, 5]: secondary protrusions were identified | circularity ([1]; one week-old spheroids, 72 h treatment at IC50,72h, control 0.96): 0.66 | protrusion occurrence (number) ([1]; one week-old spheroids, 72 h treatment at IC50,72h, control 4): 2 | protrusion occurrence (length) [1, 5]: 73 μm | protrusion occurrence (length) ([1]; one week-old spheroids, 72 h treatment at IC50,72h, listed as doxorubicin): up to 73 μm | perimeter ([1]; one week-old spheroids, 72 h treatment at IC50,72h, control 2120 ± 310): 2820 ± 506 μm | RFP fluorescence of VIM RFP reporter ([2]; 2-fold IC50,72h): somewhat suppressed the RFP fluorescence | vimentin expression ([2]; sub-toxic concentrations): considerably increased vimentin expression | morphology of vimentin intermediate filaments (MDA-MB-231 VIM RFP cells [3]): adopted a typical structure | IC50 (MCF-10A cells; Homo sapiens, MCF-10A, SRB assay, 72 h incubation, mean ± SD, non-cancerous cells): 8.6 ± 0.8 µM | SI, average selectivity index (MCF-10A cells; IC50 (MCF-10A)/average IC50 (MDA-MB-231 and MCF-7)): ~18 | wound healing assay observation (MDA-MB-231 VIM RFP cells [4]; 24 h, IC50,72h): induced formation of the pseudopods | wound closure capacity (MDA-MB-231 VIM RFP cells [4]; 24 h after treatment with IC50,72h, untreated control 70%): 67% | upregulation of expression of β-catenin (B-catenin): ~3 fold | relative mRNA expression B-catenin (2^–ΔΔCt) (B-catenin; [6]): 2.86 | upregulation of expression of SNAI1 (SNAI1): ~2 fold | relative mRNA expression SNAI1 (2^–ΔΔCt) (SNAI1; [6]): 1.63 | effect on expression of vimentin (Vimentin): slightly upregulated also the expression of vimentin | relative mRNA expression Vimentin (2^–ΔΔCt) (Vimentin; [6]): 1.21 | upregulation of expression of N-cadherin (N-Cadherin): ~3 fold | relative mRNA expression N-Cadherin (2^–ΔΔCt) (N-Cadherin; [6]): 3.39 | effect on expression of E-cadherin (E-Cadherin): the expression of E-cadherin slightly decreased | relative mRNA expression E-Cadherin (2^–ΔΔCt) (E-Cadherin; [6]): 0.73
